Test results: US20260041679A1, “METHOD OF TREATING HYPERTENSION WITH THE ALDOSTERONE SYNTHASE INHIBITOR BAXDROSTAT” (CINCOR PHARMA, INC., priority 2022, published 2026)

What was measured:
[1] = target: T1, aldosterone synthase (Homo sapiens, UniProt P19099); experiment: Multiple ascending dose study, pharmacodynamics: plasma aldosterone, cortisol, electrolytes (Example 2); type: in vivo
T1 construct: Pharmacodynamic measurements included plasma aldosterone, cortisol, and electrolytes; endogenous in cells; host or cells: human subjects in vivo (healthy volunteers; resistant hypertension patients)
T1 sequence (P19099 25-503): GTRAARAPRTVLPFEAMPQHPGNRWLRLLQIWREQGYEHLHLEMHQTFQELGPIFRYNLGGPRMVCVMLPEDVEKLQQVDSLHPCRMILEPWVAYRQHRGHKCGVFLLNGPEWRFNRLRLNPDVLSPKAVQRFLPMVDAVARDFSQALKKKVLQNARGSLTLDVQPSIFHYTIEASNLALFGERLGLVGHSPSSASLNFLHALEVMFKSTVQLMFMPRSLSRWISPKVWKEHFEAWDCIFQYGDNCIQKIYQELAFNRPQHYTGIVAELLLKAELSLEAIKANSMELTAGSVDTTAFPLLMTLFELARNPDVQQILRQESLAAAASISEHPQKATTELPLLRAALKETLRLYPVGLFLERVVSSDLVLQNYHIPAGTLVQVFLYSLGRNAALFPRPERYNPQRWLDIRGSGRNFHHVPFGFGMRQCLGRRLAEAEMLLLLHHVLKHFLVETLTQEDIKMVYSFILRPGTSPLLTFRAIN
Experimental: This randomized, double-blind, placebo-controlled phase 1 study evaluated the safety, pharmacokinetics, and pharmacodynamics of multiple ascending doses of baxdrostat in healthy volunteers. Fifty-six subjects were randomized to receive oral baxdrostat (0.5, 1.5, 2.5, or 5.0 mg) or placebo once daily for ten days and were placed on either a low salt or normal salt diet for the duration of the study. In particular, subjects were randomized into 5 cohorts to receive baxdrostat or placebo once daily for 10 days. Cohorts 1 and 2 were placed on a low salt diet to stimulate aldosterone production and were administered 2.5 or 5.0 mg oral baxdrostat, respectively. Cohorts 1 and 2 also underwent an adrenocorticotropic hormone (ACTH) challenge to increase aldosterone and cortisol levels to evaluate the specificity of baxdrostat for targeting aldosterone synthase. Cohorts 3, 4, and 5 were placed on a normal salt diet and were administered 1.5, 2.5, or 0.5 mg oral baxdrostat, respectively. Blood samples were collected prior to and after dosing on days 1 and 10 for measurement of plasma baxdrostat concentrations to characterize single-dose and steady-state pharmacokinetics. Pharmacodynamic measurements included plasma aldosterone, cortisol, and electrolytes. Safety assessments included physical examination, electrocardiograms, orthostatic vital signs, and clinical laboratory evaluations.

[2] = Study 121: adverse events, safety population
Description: In this study, adverse events of special interest (AESIs) were events of hypotension, low sodium levels or elevated potassium levels that required clinical intervention.

[3] = Single ascending dose study, safety and tolerability (Example 1); type: in vivo; conditions: single dose 1 to 360 mg
Experimental: Eighty-eight healthy male volunteers completed the first-in-human study of baxdrostat. In part 1 of the trial, subjects received a single oral dose of baxdrostat ranging from 1 to 360 mg in order to evaluate safety, tolerability, PK, and pharmacodynamics (PD). Part 2 evaluated the PK of a single 3 mg intravenous dose of baxdrostat.

Compound: CCC(=O)N[C@@H]1CCCc2c(-c3ccc4c(c3)CCC(=O)N4C)cncc21 [baxdrostat, (R)—N-(4-(1-methyl-2-oxo-1,2,3,4-tetrahydroquinolin-6-yl)-5,6,7,8-tetrahydroisoquinolin-8-yl) propionamide]
- plasma aldosterone, reduction ([1]; Day 10): 51-73%
- plasma aldosterone ([1]; doses ≥1.5 mg, regardless of diet): dose-dependent reduction of plasma aldosterone
- plasma cortisol ([1]; once daily, 10 days): no meaningful impact on plasma cortisol
- plasma sodium levels ([1]; once daily, 10 days): mild dose-dependent decreases in plasma sodium levels
- potassium levels ([1]; once daily, 10 days): increases in potassium levels
- TESAE, Number of Subjects (Number of Events) ([2]; 0.5 mg): 0 (0) subjects (events)
- TESAE: General disorders and administration site conditions ([2]; 0.5 mg): 0 subjects (events)
- TESAE: Infections and infestations ([2]; 0.5 mg): 0 subjects (events)
- TESAE: Metabolism and nutrition disorders ([2]; 0.5 mg): 0 subjects (events)
- TESAE: Musculoskeletal and connective tissue disorders ([2]; 0.5 mg): 0 subjects (events)
- TESAE: Nervous system disorders ([2]; 0.5 mg): 0 subjects (events)
- TESAE: Renal and urinary disorders ([2]; 0.5 mg): 0 subjects (events)
- TESAE: Respiratory, thoracic and mediastinal disorders ([2]; 0.5 mg): 0 subjects (events)
- adverse events of special interest (AESIs), patients per arm ([2]; 0.5 mg): 1
- percentage of patients who experienced TEAEs ([2]; 0.5 mg): 34.8%
- TESAE, Number of Subjects (Number of Events) ([2]; 1 mg): 2 (3) subjects (events)
- TESAE: Infections and infestations ([2]; 1 mg): 1 (1) subjects (events)
- TESAE: Intervertebral disc degeneration ([2]; 1 mg): 1 (1) subjects (events)
- TESAE: Musculoskeletal and connective tissue disorders ([2]; 1 mg): 1 (1) subjects (events)
- TESAE: Nephrolithiasis ([2]; 1 mg): 1 (1) subjects (events)
- TESAE: Pyelonephritis ([2]; 1 mg): 1 (1) subjects (events)
- TESAE: Renal and urinary disorders ([2]; 1 mg): 1 (1) subjects (events)
- percentage of patients who experienced TEAEs ([2]; 1 mg): 52.2%
- adverse events of special interest (AESIs), patients per arm ([2]; 1 mg arm): 5
- TESAE, Number of Subjects (Number of Events) ([2]; 2 mg): 6 (12) subjects (events)
- TESAE: Acute kidney injury ([2]; 2 mg): 1 (1) subjects (events)
- TESAE: Acute respiratory failure ([2]; 2 mg): 1 (1) subjects (events)
- TESAE: Arthralgia ([2]; 2 mg): 1 (1) subjects (events)
- TESAE: Cellulitis ([2]; 2 mg): 1 (1) subjects (events)
- TESAE: Dehydration ([2]; 2 mg): 1 (1) subjects (events)
- TESAE: Dizziness ([2]; 2 mg): 1 (1) subjects (events)
- TESAE: Hyperglycaemia ([2]; 2 mg): 1 (1) subjects (events)
- TESAE: Hyperkalemia ([2]; 2 mg): 1 (1) subjects (events)
- TESAE: Hyponatraemia ([2]; 2 mg): 1 (1) subjects (events)
- TESAE: Infections and infestations ([2]; 2 mg): 2 (2) subjects (events)
- TESAE: Metabolism and nutrition disorders ([2]; 2 mg): 1 (4) subjects (events)
- TESAE: Musculoskeletal and connective tissue disorders ([2]; 2 mg): 1 (1) subjects (events)
- TESAE: Nervous system disorders ([2]; 2 mg): 2 (2) subjects (events)
- TESAE: Renal and urinary disorders ([2]; 2 mg): 1 (1) subjects (events)
- TESAE: Respiratory failure ([2]; 2 mg): 1 (1) subjects (events)
- TESAE: Respiratory, thoracic and mediastinal disorders ([2]; 2 mg): 2 (2) subjects (events)
- TESAE: Syncope ([2]; 2 mg): 1 (1) subjects (events)
- TESAE: Urinary tract infection ([2]; 2 mg): 1 (1) subjects (events)
- percentage of patients who experienced TEAEs ([2]; 2 mg): 47.8%
- adverse events of special interest (AESIs), patients per arm ([2]; 2 mg arm): 2
- adrenal insufficiency ([2]; Study 121): no reported cases of adrenal insufficiency
- deaths and relatedness of SAEs ([2]; Study 121): no deaths in the study and all SAEs were assessed by the investigators to be unrelated to baxdrostat
- tolerability ([2]; once daily for 12 weeks): well tolerated
- deaths, serious adverse events, dose-limiting adverse events [3]: no deaths, serious adverse events, or dose-limiting adverse events
- side effects [3]: mild and included headache, nasopharyngitis, and diarrhea
